In ChEMBL document CHEMBL5260817, “Polyamine-based analogs and conjugates as antikinetoplastid agents” (Eur J Med Chem, 2017):
Blank lines part the entries; values can stand above or below the compound they belong to.

Experiments:
[1] = Anticancer activity against rat Myoblast cells assessed as cell growth inhibition; type: functional, cell-based
[2] = test system: Trypanosoma brucei rhodesiense; test: Antiprotozoal activity against Trypanosoma brucei rhodesiense STIB900 strain assessed as trypanocidal activity; type: functional, organism-based
Trypanosoma brucei [3] = test: Antiprotozoal activity against Trypanosoma brucei infected in HepG2 cells; type: functional, organism-based
Trypanosoma cruzi [4] = test: Antiprotozoal activity against Trypanosoma cruzi […]; type: functional, organism-based
Leishmania infantum [5] = test: Antiprotozoal activity against Leishmania infantum amastigotes measured after 5 days; type: functional, organism-based; settings: 120 h
Leishmania infantum [6] = test: Antiprotozoal activity against Leishmania infantum promastigotes measured after 5 days; type: functional, organism-based; settings: 120 h
Leishmania donovani [7] = test: Antiprotozoal activity against Leishmania donovani WR555 assessed as growth inhibition at 1 uM relative to control; type: functional
Trypanosoma brucei [8] = test: Trypanocidal activity against Trypanosoma brucei K 243-As-10-3 strain; type: functional, organism-based
Trypanosoma brucei [9] = test: Trypanocidal activity against Trypanosoma brucei Lab 110 strain; type: functional, organism-based
Leishmania donovani [10] = test: Antiprotozoal activity against Leishmania donovani WR555 infected in mouse liver assessed as parasite growth inhibition at 10 mg/kg relative to control; type: functional
Trypanosoma brucei [11] = test: Trypanocidal activity against Trypanosoma brucei K 243 strain; type: functional, organism-based
Leishmania donovani [12] = test: Antiprotozoal activity against Leishmania donovani WR555 infected in mouse liver assessed as parasite growth inhibition at 15 mg/kg relative to control; type: functional
Trypanosoma brucei [13] = test: Trypanocidal activity against Trypanosoma brucei K 269 strain; type: functional, organism-based
Leishmania donovani [14] = test: Antiprotozoal activity against Leishmania donovani MHOM/IN/1978/UR6 strain promastigotes assessed as parasite growth inhibition; type: functional, organism-based
Trypanosoma cruzi [15] = test: Antiprotozoal activity against Trypanosoma cruzi Y strain epimastigotes; type: functional, organism-based
Trypanothione reductase = Trypanothione reductase (Crithidia fasciculata, UniProt P39040); test: Inhibition of Crithidia fasciculata TryR overexpressed in escherichia coli assessed as inhibition constant
Trypanosoma cruzi [16] = test: Antiprotozoal activity against Trypanosoma cruzi infected in mouse Peritoneal macrophage cell assessed as growth inhibition at 0.8 uM measured after 4 days relative to control; type: functional; settings: 96 h, time 4 day
Leishmania infantum [17] = test: Antiprotozoal activity against Leishmania infantum MCAN/ES/2001/UCM-10 amastigotes infected in mouse J774.2 cells measured after 72 hrs; type: functional, organism-based; settings: J774.2, 72 h
Leishmania donovani [18] = test: Antiprotozoal activity against Leishmania donovani MHOM/PE/84/LC26 amastigotes infected in mouse J774.2 cells measured after 72 hrs; type: functional, organism-based; settings: J774.2, 72 h
Trypanosoma brucei [19] = test: Antiprotozoal activity against Trypanosoma brucei; type: functional, organism-based
KB = test: Anticancer activity against human KB cells assessed as cell growth inhibition; type: functional, cell-based
Leishmania donovani [20] = test: Antiprotozoal activity against Leishmania donovani infected in mouse macrophage cell measured after 72 hrs; type: functional, organism-based
Leishmania donovani [21] = test: Leishmanicidal activity against Leishmania donovani; type: functional, organism-based
Leishmania donovani [22] = test: Antiprotozoal activity against Leishmania donovani infected in mouse macrophage cell; type: functional, organism-based
Leishmania donovani [23] = test: Antiprotozoal activity against Leishmania donovani MHOM/IN/00/DEV strain promastigotes assessed as growth inhibition measured after 72 hrs by MTT assay; type: functional, organism-based
HepG2 = test: Anticancer activity against human HepG2 cells assessed as cell growth inhibition measured after 72 hrs by MTT assay; type: functional, cell-based; settings: HepG2, 72 h
Trypanosoma cruzi [24] = test: Antiprotozoal activity against Trypanosoma cruzi […] strain infected in mouse macrophage cell measured after 3 days; type: functional, organism-based; settings: 72 h
Trypanosoma cruzi [25] = test: Antiprotozoal activity against Trypanosoma cruzi MHOM/BR/OO/Y strain infected in mouse macrophage cell measured after 3 days; type: functional, organism-based; settings: 72 h
Leishmania donovani [26] = test: Antiprotozoal activity against Leishmania donovani MHOM/ET/67/L82 strain infected in mouse macrophage cell measured after 5 days; type: functional, organism-based; settings: MHOM/ET/67/L82, Macrophage, 120 h
Trypanosoma brucei [27] = test: Antiprotozoal activity against Trypanosoma brucei trypomastigotes measured after 4 days by MTT assay; type: functional, organism-based; settings: 96 h
MRC5 = test: Anticancer activity against human MRC5 cells assessed as cell growth inhibition; type: functional, cell-based
Trypanosoma cruzi [28] = test: Antiprotozoal activity against Trypanosoma cruzi amastigotes measured after 4 days; type: functional, organism-based; settings: 96 h
Leishmania infantum [29] = test: Antiprotozoal activity against Leishmania infantum amastigotes measured after 7 days by microscopic analysis; type: functional, organism-based; settings: 168 h
Trypanosoma cruzi [30] = test: Antiprotozoal activity against Trypanosoma cruzi […] measured after 72 hrs; type: functional, organism-based
Trypanosoma cruzi [31] = test: Antiprotozoal activity against Trypanosoma cruzi […] infected in mouse assessed as reduction in curative effect at 15 mg/kg relative to control; type: functional
Trypanosoma cruzi [32] = test: Antiprotozoal activity against Trypanosoma cruzi […] infected in African green monkey Vero cells assessed as reduction in infection measured after 72 hrs relative to control; type: functional
[33] = Inhibition of Trypanosoma cruzi Fe - Superoxide dismutase
Leishmania donovani [34] = test: Antiprotozoal activity against Leishmania donovani LV9 strain amastigotes; type: functional, organism-based
Leishmania braziliensis = test: Antiprotozoal activity against Leishmania braziliensis 2903 strain […] assessed as […] at 10 ug/ml relative to control; type: functional; settings: dose 10 µg/ml
Leishmania amazonensis = test: Antiprotozoal activity against Leishmania amazonensis PH8 strain […] assessed as […] at 10 ug/ml relative to control; type: functional; settings: dose 10 µg/ml
Leishmania donovani [35] = test: Antiprotozoal activity against Leishmania donovani PP75 strain […] assessed as […] at 10 ug/ml relative to control; type: functional; settings: dose 10 µg/ml
Trypanosoma cruzi [36] = test: Antiprotozoal activity against Trypanosoma cruzi CL-B5 strain epimastigotes; type: functional, organism-based
Trypanosoma cruzi [37] = test: Antiprotozoal activity against Trypanosoma cruzi CL-B5 strain amastigotes; type: functional, organism-based
Trypanosoma cruzi [38] = test: Antiprotozoal activity against Trypanosoma cruzi JEM strain epimastigotes; type: functional, organism-based
Trypanosoma cruzi [39] = test: Antiprotozoal activity against Trypanosoma cruzi MG strain epimastigotes; type: functional, organism-based
[40] = Inhibition of Trypanosoma brucei recombinant N-terminal His-tag TryS in presence of ATP
[41] = Inhibition of Trypanosoma cruzi recombinant N-terminal His-tag TryS in presence of ATP
[42] = Inhibition of Leishmania infantum recombinant N-terminal His-tag TryS in presence of ATP
[43] = Inhibition of Leishmania infantum TryS in presence of ATP by Malachite green staining based end-point assay
Leishmania infantum [44] = test: Antiprotozoal activity against Leishmania infantum promastigotes; type: functional, organism-based
[45] = Inhibition of Trypanosoma brucei TryS

Trypanothione reductase, sequence (P39040 whole entry): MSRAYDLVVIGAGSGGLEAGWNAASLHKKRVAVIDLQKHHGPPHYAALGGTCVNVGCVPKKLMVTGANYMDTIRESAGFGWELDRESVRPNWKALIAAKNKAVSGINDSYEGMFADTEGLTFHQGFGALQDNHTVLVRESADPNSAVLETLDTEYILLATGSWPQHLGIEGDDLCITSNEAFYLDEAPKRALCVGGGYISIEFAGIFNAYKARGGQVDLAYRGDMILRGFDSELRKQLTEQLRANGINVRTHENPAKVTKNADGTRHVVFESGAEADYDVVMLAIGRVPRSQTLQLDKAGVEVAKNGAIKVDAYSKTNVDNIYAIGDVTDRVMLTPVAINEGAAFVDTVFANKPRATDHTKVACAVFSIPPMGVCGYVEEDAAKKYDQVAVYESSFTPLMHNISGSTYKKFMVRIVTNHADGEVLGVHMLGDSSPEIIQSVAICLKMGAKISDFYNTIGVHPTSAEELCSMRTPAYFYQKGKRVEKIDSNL

SMILES: CN(C)CCCNc1cc(Cl)ccc1Sc1ccc(C(F)(F)F)cc1
- IC50 [1]: 9.8 µM
- IC50 [2]: 1.2 µM

SMILES: c1ccc(CNCCCNCCCCCCCNCCCNCc2ccccc2)cc1
- inhibition at 1 µM (Leishmania donovani [7]): 77%
- IC50 (Trypanosoma brucei [8]): 10 µM
- IC50 (Trypanosoma brucei [9]): 10 µM
- inhibition in vivo at 10 mg/kg (Leishmania donovani [10]): 65%
- IC50 (Trypanosoma brucei [11]): 10 µM
- inhibition in vivo at 15 mg/kg (Leishmania donovani [12]): 99.9%
- IC50 (Trypanosoma brucei [13]): 10 µM
- IC50 (Leishmania donovani [14]): 18 µM

SMILES: NCCC(=O)CN
- IC50 (Trypanosoma cruzi [15]): 1180 µM

SMILES: Clc1ccc(Sc2ccccc2)c(CNCCCN2CCN(CCCNCc3cc(Cl)ccc3Sc3ccccc3)CC2)c1
- inhibition at 0.8 µM (Trypanosoma cruzi [16]): 90%

SMILES: O=C(O)CCCCCN1CSC(=S)N(CCCCCCN2CN(CCCCCC(=O)O)CSC2=S)C1
- IC50 (Trypanosoma brucei [19]): 0.36 µM
- IC50 (KB): 16.1 µM
- IC50 (Leishmania donovani [20]): 6.74 µM

SMILES: CCCCCCCCCCCCCCCCNc1c(NCC[N+](C)(C)C)c(=O)c1=O
- IC50 (Leishmania donovani [21]): > 12 µM
- IC50 (Leishmania donovani [22]): > 12 µM

SMILES: CC1=C(CCCCCC(=O)NCCCCNCCCNC(=O)CCCCCC2=C(C)C(=O)c3ccccc3C2=O)C(=O)c2ccccc2C1=O
- IC50 (Trypanosoma cruzi [24]): < 5 µM
- IC50 (Trypanosoma cruzi [25]): < 5 µM
- IC50 (Leishmania donovani [26]): < 5 µM

SMILES: COc1ccc2nc3cc(Cl)ccc3c(NCCCN(CCCNc3c4ccc(Cl)cc4nc4ccc(OC)cc34)C(=O)C(NC(=O)OC(C)(C)C)C(C)C)c2c1 (stereo unspecified)
- IC50 (Trypanosoma brucei [27]): < 1.56 µM
- IC50 (MRC5): > 3.13 µM
- IC50 (Trypanosoma cruzi [28]): < 1.56 µM
- IC50 (Leishmania infantum [29]): < 1.56 µM

SMILES: CCN(CC)CCCCCCNc1cc(OC)cc2c(C)ccnc12 [SITAMAQUINE]
- IC50 (Leishmania donovani [34]): 4 µM
- Activity (Leishmania braziliensis): 80%
- Activity (Leishmania amazonensis): 80%
- Activity (Leishmania donovani [35]): 80%

SMILES: CC(C)c1ccc(CNCCCCCCCCCCNCc2ccc(C(C)C)cc2)cc1
- IC50 [40]: 30 µM
- IC50 [41]: 30 µM
- IC50 [42]: 30 µM

SMILES: CNCCNC(=O)CN1C(=O)Cc2c([nH]c3ccc(C(F)(F)F)cc23)-c2ccccc21
- IC50 [43]: 0.35 µM
- IC50 (Leishmania infantum [44]): 112 µM
- IC50 [45]: 75 µM

Now from value to compound, other results behind:

- IC50 (Trypanosoma brucei [3]): ≤ 10 µM
SMILES: COc1ccc(CNCCNCc2ccc(OC)cc2)cc1

- IC50 (Trypanosoma cruzi [4]): 4.66 µM
SMILES: CCCCN(CCCC)CCCN

- IC50 (Leishmania infantum [5]): 1 µM
- IC50 (Leishmania infantum [6]): 1 µM
SMILES: O=C1c2cccc3cccc(c23)C(=O)N1CCCNCCCCNCCCN1C(=O)c2cccc3cccc(c23)C1=O

- Ki (Trypanothione reductase): 85 µM
SMILES: NCCCNCCCCNCCCNC(=O)CCc1ccc(O)c(O)c1

- IC50 (Leishmania infantum [17]): 20 µM
- IC50 (Leishmania donovani [18]): 20 µM
SMILES: CN1CCCNc2c(c(=O)c2=O)NCCCN(C)CCCNc2c(c(=O)c2=O)NCCC1

- IC50 (HepG2): 1.56 µM
SMILES: c1ccc2c(c1)cc1c(-c3ccc(CNCCCN4CCN(CCCNCc5ccc(-c6nc7ccccc7n7c6cc6ccccc67)cc5)CC4)cc3)nc3ccccc3n12
- IC50 (Leishmania donovani [23]): 0.57 µM

- IC50 (Trypanosoma cruzi [30]): 7 µM
- IC50 [33]: 18 µM
SMILES: c1ccc(CN2CCN(Cc3ccccn3)CCN(Cc3ccccn3)CC2)nc1
- inhibition in vivo at 15 mg/kg (Trypanosoma cruzi [31]): 33%
- inhibition (INH) (Trypanosoma cruzi [32]): 81%

- IC50 (Trypanosoma cruzi [36]): 2 µM
- IC50 (Trypanosoma cruzi [37]): 2 µM
- IC50 (Trypanosoma cruzi [38]): 10 µM
- IC50 (Trypanosoma cruzi [39]): 10 µM
SMILES: CCCCCCCCCCCCCCC(CN)NC(=O)OC(C)(C)C (stereo unspecified)
